Ends that are not written are not given here.
Tests used:
[1] = system: ZDF rats; experiment: Glucose lowering in conscious food-deprived diabetic ZDF rats; format: in vivo, rat
Method: Glucose lowering in diabetic ZDF rats. ZDF rats, 8-9 weeks old with fed glucose levels of approximately 300 mg/dl are used for this experiment. The animals are randomised into control (vehicle) and treatment group(s) on the day of the experiment and are conscious throughout the experiment. The compound is injected intravenously at the start of the experiment and blood samples are drawn from the tail vein immediately prior to compound injection and then 0.5, 1, 2, 3, 4 and 24 h after compound injection. The animals are deprived of food during the first 2 or 4 h of the experiment. The blood samples are collected in EDTA tubes, aprotinin added and immediately put on ice pending insulin and glucose analysis using standard methods.

[2] = system: Normal Wistar rats; experiment: Intravenous glucose tolerance test (IVGTT), serum glucose and insulin; format: in vivo, rat
Method: Intravenous glucose tolerance test (IVGTT): Normal Wistar rats are fasted overnight and are anesthetized prior to the experiment. A blood sampling catheter is inserted into the rats. The compound is given in the jugular vein. Blood samples are taken from the carotid artery. A blood sample is drawn immediately prior to the injection of glucose along with the compound. After the initial blood sample, glucose mixed with compound is injected intravenously (i.v.). Compound may also be injected intravenously or subcutaneously prior to the glucose challenge. A glucose challenge of 0.5 g/kg body weight is given, injecting a total of 1.5 mL vehicle with glucose and agonist per kg body weight. The peptide concentrations are varied to produce the desired dose in μg/kg. Blood samples are drawn at 2, 4, 6 and 10 minutes after giving glucose. The control group of animals receives the same vehicle along with glucose, but with no compound added. In some instances, a 30 minute post-glucose blood sample is drawn. Aprotinin is added to the blood sample (250-500 kIU/ml blood). The serum is then analyzed for glucose and insulin using standard methodologies.
The assay uses a formulated and calibrated peptide stock in PBS. Normally, this stock is a prediluted 100 μM stock. However, a more concentrated stock with approximately 1 mg agonist per 1 mL is used. The specific concentration is always known. Variability in the maximal response is mostly due to variability in the vehicle dose.

[3] = 10 μg/kg iv, 0 h (immediately prior to injection)
[4] = 10 μg/kg iv, 0.5 h after injection
[5] = 10 μg/kg iv, 1 h after injection
[6] = 10 μg/kg iv, 2 h after injection
[7] = 10 μg/kg iv, 4 h after injection (food access after 2 h)
[8] = 10 μg/kg iv, 24 h after injection (food access after 2 h)
[9] = 30 μg/kg iv, 0 h (immediately prior to injection)
[10] = 30 μg/kg iv, 0.5 h after injection
[11] = 30 μg/kg iv, 1 h after injection
[12] = 30 μg/kg iv, 2 h after injection
[13] = 30 μg/kg iv, 4 h after injection (food access after 2 h)
[14] = 30 μg/kg iv, 24 h after injection (food access after 2 h)
[15] = 100 μg/kg iv, 0 h (immediately prior to injection)
[16] = 100 μg/kg iv, 1 h after injection
[17] = 100 μg/kg iv, 2 h after injection
[18] = 100 μg/kg iv, 3 h after injection
[19] = 100 μg/kg iv, 4 h after injection
[20] = 100 μg/kg iv, 24 h after injection (food access after 4 h)

Substance “P137: PEGylated material obtained from P120 and methoxy-PEG2-MAL-40K (HSDAVFTDNYTRLRKQVAAKKYLQSIKNKRYGGPSSGAPPPC; also: PEGylated with methoxy-PEG2-MAL-40K, site not given here) [Agonist P137]” has a glucose [1, 3] of 344 mg/dL, an insulin [1, 3] of 12.5 ng/mL and a glucose [1, 4] of 277 mg/dL. It also gave an insulin [1, 4] of 21.2 ng/mL, a glucose [1, 5] of 244 mg/dL and an insulin [1, 5] of 18.5 ng/mL. For the same substance, the glucose [1, 6] was 199 mg/dL, the insulin [1, 6] was 20.0 ng/mL and the glucose [1, 7] was 361 mg/dL. The insulin [1, 7] was 18.5 ng/mL, the glucose [1, 8] was 336 mg/dL and the insulin [1, 8] was 15.0 ng/mL. It also gave a glucose [1, 9] of 329 mg/dL, an insulin [1, 9] of 10.9 ng/mL and a glucose [1, 10] of 254 mg/dL. For the same substance, the insulin [1, 10] was 27.0 ng/mL, the glucose [1, 11] was 218 mg/dL and the insulin [1, 11] was 23.7 ng/mL. It also gave a glucose [1, 12] of 156 mg/dL, an insulin [1, 12] of 23.1 ng/mL and a glucose [1, 13] of 347 mg/dL. For the same substance, the insulin [1, 13] was 20.8 ng/mL, the glucose [1, 14] was 347 mg/dL and the insulin [1, 14] was 16.0 ng/mL. For the same substance, the glucose [1, 15] was 307 mg/dL, the insulin [1, 15] was 17.8 ng/mL and the glucose [1, 16] was 362 mg/dL. It also gave an insulin [1, 16] of 19.9 ng/mL, a glucose [1, 17] of 360 mg/dL and an insulin [1, 17] of 15.9 ng/mL. For the same substance, the glucose [1, 18] was 323 mg/dL, the insulin [1, 18] was 15.4 ng/mL and the glucose [1, 19] was 304 mg/dL. It also gave an insulin [1, 19] of 15.1 ng/mL, a glucose [1, 20] of 400 mg/dL and an insulin [1, 20] of 11.1 ng/mL. The “% increase AUC (insulin, 0-10 min after glucose)” value (from here on “% increase AUC”) ([2]; Dose = 10 μg/kg iv, time between glucose & compound 0 h) was “+366%”, the “% increase AUC” value ([2]; Dose = 10 μg/kg iv, time between glucose & compound 4 h) was “+193%” and the “% increase AUC” value ([2]; Dose = 30 μg/kg iv, time between glucose & compound 4 h) was “+321%”. The “% increase AUC” value ([2]; Dose = 100 μg/kg iv, time between glucose & compound 4 h) was “+487%”.

— patent US20080146500A1, “Selective Vpac2 Receptor Peptide Agonists” (priority 2004, published 2008)
